How the values were obtained:
Test in all cases: Kinase selectivity, DiscoverX scanMAX Kinase assay panel (% control)
Type in all cases: binding
[1] = molecular target: T1, kinases of the scanMAX Kinase assay panel (Homo sapiens, UniProt P36894); settings: BMPR1A; 1 uM
T1 construct: purchased DiscoverX Co. (contract measurement) scanMAX Kinase assay panel
Outline: (§1)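 Each enzyme is treated with drug at 1 uM in DMSO, then signal is scaled between a positive control (0%) and DMSO (100%) to give % control. Kinases with % control under 35% are scored as inhibited.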

[2] = molecular target: T2, kinases of the scanMAX Kinase assay panel (Homo sapiens, UniProt P19784); settings: CSNK2A2; 1 uM
T2 construct: purchased DiscoverX Co. (contract measurement) scanMAX Kinase assay panel
Outline: as §1

[3] = molecular target: T3, kinases of the scanMAX Kinase assay panel (Homo sapiens, UniProt Q9BQI3); settings: EIF2AK1; 1 uM
T3 construct: purchased DiscoverX Co. (contract measurement) scanMAX Kinase assay panel
Outline: as §1

[4] = molecular target: T4, kinases of the scanMAX Kinase assay panel (Homo sapiens, UniProt P42336, Q546K); settings: PIK3CA(Q546K); 1 uM
T4 construct: purchased DiscoverX Co. (contract measurement) scanMAX Kinase assay panel
Outline: as §1

[5] = molecular target: T5, kinases of the scanMAX Kinase assay panel (Homo sapiens, UniProt P08581); settings: MET; 1 uM
T5 construct: purchased DiscoverX Co. (contract measurement) scanMAX Kinase assay panel
Outline: as §1

[6] = molecular target: T6, kinases of the scanMAX Kinase assay panel (Homo sapiens, UniProt O95835); settings: LATS1; 1 uM
T6 construct: purchased DiscoverX Co. (contract measurement) scanMAX Kinase assay panel
T6 sequence (O95835 1-1130): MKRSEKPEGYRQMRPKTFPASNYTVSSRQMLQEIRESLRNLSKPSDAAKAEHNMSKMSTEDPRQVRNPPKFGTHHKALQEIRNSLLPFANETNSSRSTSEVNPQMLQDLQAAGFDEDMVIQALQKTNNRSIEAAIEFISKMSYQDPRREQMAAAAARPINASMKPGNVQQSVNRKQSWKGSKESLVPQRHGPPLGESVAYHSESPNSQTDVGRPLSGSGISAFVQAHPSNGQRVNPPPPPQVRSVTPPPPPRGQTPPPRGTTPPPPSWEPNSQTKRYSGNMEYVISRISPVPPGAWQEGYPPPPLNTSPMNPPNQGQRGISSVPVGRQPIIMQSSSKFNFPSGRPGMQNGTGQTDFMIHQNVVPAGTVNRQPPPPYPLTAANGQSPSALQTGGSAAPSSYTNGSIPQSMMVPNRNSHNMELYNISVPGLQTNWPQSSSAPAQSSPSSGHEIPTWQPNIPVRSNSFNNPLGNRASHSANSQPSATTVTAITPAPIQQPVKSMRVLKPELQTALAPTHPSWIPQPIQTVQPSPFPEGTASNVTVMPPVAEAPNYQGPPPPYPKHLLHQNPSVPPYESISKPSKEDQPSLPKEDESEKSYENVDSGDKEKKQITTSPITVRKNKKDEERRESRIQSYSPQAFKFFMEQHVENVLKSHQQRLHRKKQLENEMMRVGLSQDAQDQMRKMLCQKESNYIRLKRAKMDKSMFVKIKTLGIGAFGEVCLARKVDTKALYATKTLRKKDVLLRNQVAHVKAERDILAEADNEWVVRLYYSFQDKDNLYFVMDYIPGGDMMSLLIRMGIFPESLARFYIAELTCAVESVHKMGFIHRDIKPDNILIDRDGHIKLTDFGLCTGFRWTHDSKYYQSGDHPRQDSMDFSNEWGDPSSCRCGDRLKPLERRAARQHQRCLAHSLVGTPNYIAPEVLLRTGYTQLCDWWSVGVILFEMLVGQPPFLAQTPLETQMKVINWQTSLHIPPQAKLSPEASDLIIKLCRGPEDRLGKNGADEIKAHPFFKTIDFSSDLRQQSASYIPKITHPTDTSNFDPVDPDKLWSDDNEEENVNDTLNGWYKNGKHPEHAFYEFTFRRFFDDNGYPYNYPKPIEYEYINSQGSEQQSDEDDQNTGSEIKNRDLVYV
Outline: as §1

[7] = molecular target: T7, kinases of the scanMAX Kinase assay panel (Homo sapiens, UniProt P54760); settings: EPHB4; 1 uM
T7 construct: purchased DiscoverX Co. (contract measurement) scanMAX Kinase assay panel
T7 sequence (P54760 16-987): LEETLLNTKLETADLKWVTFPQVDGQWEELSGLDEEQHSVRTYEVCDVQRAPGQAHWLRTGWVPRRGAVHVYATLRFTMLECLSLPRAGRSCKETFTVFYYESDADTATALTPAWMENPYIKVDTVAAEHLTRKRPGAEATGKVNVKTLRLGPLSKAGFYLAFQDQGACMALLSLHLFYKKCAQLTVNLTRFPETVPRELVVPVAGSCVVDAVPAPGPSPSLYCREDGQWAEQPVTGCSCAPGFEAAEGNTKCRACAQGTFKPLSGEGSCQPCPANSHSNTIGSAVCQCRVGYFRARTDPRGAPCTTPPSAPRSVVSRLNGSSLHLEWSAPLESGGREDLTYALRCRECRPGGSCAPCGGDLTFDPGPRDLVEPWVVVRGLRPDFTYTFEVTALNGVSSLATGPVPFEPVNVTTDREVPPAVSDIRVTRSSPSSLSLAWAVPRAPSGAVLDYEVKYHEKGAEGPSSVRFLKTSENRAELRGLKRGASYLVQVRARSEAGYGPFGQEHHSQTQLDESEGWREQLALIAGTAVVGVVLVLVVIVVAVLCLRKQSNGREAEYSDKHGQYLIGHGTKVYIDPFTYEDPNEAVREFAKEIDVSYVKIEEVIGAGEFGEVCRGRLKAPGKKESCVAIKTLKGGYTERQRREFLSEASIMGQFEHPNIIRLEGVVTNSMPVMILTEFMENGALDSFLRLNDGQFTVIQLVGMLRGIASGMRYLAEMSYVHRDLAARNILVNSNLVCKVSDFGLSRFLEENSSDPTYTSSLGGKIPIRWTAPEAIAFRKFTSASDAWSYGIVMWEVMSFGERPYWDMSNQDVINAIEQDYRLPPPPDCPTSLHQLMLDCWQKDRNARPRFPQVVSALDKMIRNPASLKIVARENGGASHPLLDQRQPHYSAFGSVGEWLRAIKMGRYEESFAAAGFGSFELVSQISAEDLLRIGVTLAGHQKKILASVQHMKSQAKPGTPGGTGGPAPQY
Outline: as §1

[8] = molecular target: T8, kinases of the scanMAX Kinase assay panel (Homo sapiens, UniProt O15075); settings: DCAMKL1; 1 uM
T8 construct: purchased DiscoverX Co. (contract measurement) scanMAX Kinase assay panel
Outline: as §1

T1 sequence (P36894 24-532): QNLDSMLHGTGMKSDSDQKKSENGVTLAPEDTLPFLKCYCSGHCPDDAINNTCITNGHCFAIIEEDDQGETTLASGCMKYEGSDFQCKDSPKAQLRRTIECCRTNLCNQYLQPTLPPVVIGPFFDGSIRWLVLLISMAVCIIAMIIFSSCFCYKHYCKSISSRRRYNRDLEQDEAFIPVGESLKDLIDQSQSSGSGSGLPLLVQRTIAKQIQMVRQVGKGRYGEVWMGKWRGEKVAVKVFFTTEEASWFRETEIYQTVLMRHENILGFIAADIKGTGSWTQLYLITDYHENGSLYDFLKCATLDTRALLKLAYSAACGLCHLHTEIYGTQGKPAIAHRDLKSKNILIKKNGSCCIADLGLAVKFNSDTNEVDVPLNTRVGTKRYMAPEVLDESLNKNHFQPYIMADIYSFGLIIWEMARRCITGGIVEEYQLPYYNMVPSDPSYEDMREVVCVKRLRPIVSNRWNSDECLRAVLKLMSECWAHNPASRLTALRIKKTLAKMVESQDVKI
T5 sequence (P08581 25-1390): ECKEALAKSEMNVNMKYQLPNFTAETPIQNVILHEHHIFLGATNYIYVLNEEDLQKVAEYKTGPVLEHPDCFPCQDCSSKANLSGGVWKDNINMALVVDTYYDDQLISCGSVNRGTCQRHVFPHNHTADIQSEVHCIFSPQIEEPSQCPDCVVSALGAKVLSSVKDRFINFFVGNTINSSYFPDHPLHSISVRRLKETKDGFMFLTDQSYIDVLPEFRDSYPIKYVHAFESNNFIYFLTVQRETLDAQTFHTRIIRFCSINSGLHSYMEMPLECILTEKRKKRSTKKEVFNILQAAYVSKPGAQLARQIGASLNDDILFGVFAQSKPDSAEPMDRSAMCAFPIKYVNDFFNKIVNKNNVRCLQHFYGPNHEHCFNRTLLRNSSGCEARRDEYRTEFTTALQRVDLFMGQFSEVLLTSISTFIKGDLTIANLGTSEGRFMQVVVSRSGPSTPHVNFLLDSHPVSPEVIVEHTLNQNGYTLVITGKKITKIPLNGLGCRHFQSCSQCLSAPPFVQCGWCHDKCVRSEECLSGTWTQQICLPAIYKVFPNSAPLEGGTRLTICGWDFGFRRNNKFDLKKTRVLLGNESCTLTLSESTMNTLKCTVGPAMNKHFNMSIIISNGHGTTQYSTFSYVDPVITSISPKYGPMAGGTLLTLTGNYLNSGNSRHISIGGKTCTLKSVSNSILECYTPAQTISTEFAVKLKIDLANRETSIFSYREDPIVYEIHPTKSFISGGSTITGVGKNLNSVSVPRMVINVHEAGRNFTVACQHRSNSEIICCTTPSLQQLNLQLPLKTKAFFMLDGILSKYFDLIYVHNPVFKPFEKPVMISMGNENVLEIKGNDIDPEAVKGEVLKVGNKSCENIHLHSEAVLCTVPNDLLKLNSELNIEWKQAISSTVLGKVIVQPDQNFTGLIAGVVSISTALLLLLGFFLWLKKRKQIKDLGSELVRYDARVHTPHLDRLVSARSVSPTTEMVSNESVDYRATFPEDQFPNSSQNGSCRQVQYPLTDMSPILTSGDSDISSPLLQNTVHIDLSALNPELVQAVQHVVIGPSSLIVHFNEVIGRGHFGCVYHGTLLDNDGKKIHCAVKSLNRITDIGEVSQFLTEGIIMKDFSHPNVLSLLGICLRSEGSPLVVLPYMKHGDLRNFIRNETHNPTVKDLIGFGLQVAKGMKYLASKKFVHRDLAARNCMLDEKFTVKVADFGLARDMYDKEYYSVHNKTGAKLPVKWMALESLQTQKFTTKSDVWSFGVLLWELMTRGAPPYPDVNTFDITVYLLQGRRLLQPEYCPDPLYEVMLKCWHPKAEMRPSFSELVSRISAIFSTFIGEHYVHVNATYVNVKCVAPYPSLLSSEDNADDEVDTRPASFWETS
T4 sequence (P42336 whole entry Q546K): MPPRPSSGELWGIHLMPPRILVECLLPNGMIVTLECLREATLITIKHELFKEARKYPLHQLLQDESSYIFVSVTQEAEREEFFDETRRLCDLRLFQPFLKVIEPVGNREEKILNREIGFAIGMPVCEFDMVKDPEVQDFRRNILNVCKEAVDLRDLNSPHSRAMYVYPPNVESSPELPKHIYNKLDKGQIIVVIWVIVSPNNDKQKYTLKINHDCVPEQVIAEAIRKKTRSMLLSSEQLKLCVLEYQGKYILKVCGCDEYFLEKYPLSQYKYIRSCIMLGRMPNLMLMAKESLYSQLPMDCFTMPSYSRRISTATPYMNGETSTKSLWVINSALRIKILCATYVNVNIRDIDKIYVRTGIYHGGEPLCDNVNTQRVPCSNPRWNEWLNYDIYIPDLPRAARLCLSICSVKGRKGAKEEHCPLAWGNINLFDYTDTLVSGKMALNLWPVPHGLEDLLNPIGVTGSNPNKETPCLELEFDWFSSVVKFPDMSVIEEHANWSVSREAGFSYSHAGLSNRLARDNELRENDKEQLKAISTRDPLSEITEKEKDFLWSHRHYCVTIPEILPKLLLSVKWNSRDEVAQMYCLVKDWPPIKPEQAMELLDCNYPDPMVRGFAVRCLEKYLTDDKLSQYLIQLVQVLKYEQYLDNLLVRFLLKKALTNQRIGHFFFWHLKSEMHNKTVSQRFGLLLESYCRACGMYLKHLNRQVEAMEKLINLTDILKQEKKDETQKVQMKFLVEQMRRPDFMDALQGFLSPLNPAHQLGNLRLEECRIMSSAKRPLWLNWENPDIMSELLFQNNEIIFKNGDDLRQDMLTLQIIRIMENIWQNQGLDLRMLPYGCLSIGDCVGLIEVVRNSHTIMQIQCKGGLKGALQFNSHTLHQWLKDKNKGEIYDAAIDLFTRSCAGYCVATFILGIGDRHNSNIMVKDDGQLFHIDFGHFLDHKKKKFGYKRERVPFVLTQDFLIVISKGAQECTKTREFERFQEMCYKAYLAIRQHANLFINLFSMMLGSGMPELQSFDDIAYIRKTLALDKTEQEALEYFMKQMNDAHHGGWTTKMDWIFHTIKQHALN
T8 sequence (O15075 whole entry): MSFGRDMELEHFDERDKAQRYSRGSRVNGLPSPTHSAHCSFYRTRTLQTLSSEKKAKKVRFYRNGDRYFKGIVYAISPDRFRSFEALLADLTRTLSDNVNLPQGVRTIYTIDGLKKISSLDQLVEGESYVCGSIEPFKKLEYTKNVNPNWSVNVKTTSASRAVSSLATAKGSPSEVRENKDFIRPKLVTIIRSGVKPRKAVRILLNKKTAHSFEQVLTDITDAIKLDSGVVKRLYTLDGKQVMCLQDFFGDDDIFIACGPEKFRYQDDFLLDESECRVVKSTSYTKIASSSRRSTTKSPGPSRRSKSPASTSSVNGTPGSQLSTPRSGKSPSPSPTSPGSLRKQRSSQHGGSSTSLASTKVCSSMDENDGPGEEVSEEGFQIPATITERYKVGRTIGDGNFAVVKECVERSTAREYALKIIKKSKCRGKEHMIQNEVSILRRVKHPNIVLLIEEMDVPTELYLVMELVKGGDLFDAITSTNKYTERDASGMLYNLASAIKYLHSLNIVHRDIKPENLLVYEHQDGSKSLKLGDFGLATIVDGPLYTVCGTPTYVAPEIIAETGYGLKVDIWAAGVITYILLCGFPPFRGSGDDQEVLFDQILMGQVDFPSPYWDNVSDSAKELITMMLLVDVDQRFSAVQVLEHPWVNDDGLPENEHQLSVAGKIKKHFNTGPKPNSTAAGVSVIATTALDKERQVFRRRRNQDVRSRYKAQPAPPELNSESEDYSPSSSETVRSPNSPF
T3 sequence (Q9BQI3 whole entry): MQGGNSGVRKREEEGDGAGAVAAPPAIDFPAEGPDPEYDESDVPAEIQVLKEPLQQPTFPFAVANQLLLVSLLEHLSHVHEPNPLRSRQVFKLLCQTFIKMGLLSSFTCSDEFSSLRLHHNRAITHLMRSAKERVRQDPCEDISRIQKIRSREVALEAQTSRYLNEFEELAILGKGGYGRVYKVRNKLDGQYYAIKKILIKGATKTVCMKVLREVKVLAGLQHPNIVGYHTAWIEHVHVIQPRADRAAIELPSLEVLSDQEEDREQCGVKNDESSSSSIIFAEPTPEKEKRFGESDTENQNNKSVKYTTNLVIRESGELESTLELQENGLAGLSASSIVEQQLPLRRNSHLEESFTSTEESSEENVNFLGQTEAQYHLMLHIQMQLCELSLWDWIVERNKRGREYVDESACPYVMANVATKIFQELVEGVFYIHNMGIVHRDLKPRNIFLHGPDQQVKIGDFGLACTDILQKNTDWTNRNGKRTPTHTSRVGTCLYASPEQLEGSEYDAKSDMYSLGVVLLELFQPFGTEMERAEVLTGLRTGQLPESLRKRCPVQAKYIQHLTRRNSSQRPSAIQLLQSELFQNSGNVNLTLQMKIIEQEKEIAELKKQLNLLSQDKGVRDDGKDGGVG
T2 sequence (P19784 whole entry): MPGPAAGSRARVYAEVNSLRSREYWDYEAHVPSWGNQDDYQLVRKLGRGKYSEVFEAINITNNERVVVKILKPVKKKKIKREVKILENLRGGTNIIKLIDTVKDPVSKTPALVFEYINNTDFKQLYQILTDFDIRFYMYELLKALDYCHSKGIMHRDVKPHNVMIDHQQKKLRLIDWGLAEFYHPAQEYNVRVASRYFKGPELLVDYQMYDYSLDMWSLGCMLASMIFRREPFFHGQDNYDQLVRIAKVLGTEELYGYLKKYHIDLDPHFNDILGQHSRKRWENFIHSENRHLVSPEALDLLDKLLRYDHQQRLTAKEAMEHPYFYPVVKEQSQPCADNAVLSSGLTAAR

SMILES | remaining binding at 1 µM [1] | remaining binding at 1 µM [2] | remaining binding at 1 µM [3] | remaining binding at 1 µM [4] | remaining binding at 1 µM [5] | remaining binding at 1 µM [6] | remaining binding at 1 µM [7] | remaining binding at 1 µM [8]
CNc1nc(Nc2ccc(C(=O)N3CCOCC3)cc2OC)nc2[nH]cc(C#N)c12 [Example 1, 2-((2-methoxy-4-(morpholine-4-carbonyl)phenyl)amino)-4-(methylamino)-7H-pyrrolo[2,3-d]pyrimidine-5-carbonitrile] | 94% | 76% | 64% | 75% | 89% | 100% | 95% | 57%
CC1(Nc2nc(Nc3cnn([C@H]4CCN(C5COC5)C[C@@H]4F)c3Cl)nc3[nH]cc(C#N)c23)CC1 [Example 52, 2-((5-chloro-1-((3S,4S)-3-fluoro-1-(oxetane-3-yl)piperidine-4-yl)-1H-pyrazole-4-yl)amino)((1-methylcyclopropyl)amino)-7H-pyrrolo[2,3-d]pyrimidine-5-carbonitrile] | 100% | 11% | 86% | 85% | 21% | 35% | 48% | 34%
CCNc1nc(Nc2ccc(C(=O)N3CCC(N4CCOCC4)CC3)cc2OC)nc2[nH]cc(C(F)(F)F)c12 [Example 104, (4-((4-(ethylamino)-5-(trifluoromethyl)-7H-pyrrolo[2,3-d]pyrimidine-2-yl)amino)-3-methoxyphenyl)(4-morpholinopiperidine-1-yl)methanone] | 100% | 95% | 90% | 87% | 100% | 100% | 100% | 49%
